Laboratory results taken from ChEMBL document CHEMBL4184112, “Spiroorthoester group-containing pregnane glycosides from the root barks of Periploca chrysantha and their inhibitory activities against the proliferation of B and T lymphocytes” (Bioorg Med Chem Lett, 2018).

What was measured:
[1] = Cytotoxicity against lymphocytes (unknown origin) assessed as decrease in cell viability; format: cell-based, Lymphocyte
[2] = Inhibition of LPS-induced B lymphocytes (unknown origin) proliferation; format: functional
[3] = Selectivity index, ratio of CC50 for lymphocytes (unknown origin) to IC50 for LPS-induced B lymphocytes (unknown origin) proliferation; format: toxicity; conditions: read-out: Ratio CC50/IC50
[4] = system: T-cell; assay: Inhibition of ConA-induced T lymphocytes (unknown origin) proliferation; format: functional, cell-based
[5] = Selectivity index, ratio of CC50 for lymphocytes (unknown origin) to IC50 for ConA-induced T lymphocytes (unknown origin) proliferation; format: toxicity; conditions: read-out: Ratio CC50/IC50

| SMILES | CC50 [1] [nM] | IC50 [2] [nM] | selectivity ratio [3] | IC50 [4] [nM] | selectivity ratio [5] |
| --- | --- | --- | --- | --- | --- |
| CO[C@H]1[C@@H](O)[C@@H](C)O[C@@H](O[C@H]2[C@@H](OC)C[C@H](O[C@H]3[C@@H](OC)C[C@H](O[C@H]4[C@@H](O)C[C@H](O[C@@H]5[C@@H](C)O[C@@]6(C[C@H]5OC)OCO[C@@H]5C[C@H](O[C@@H](C)[C@@]7(O)CC[C@H]8[C@@H]9CC=C%10C[C@@H](O)CC[C@]%10(C)[C@H]9CC[C@@]87C)O[C@H](C)[C@H]5O6)O[C@@H]4C)O[C@@H]3C)O[C@@H]2C)[C@@H]1O | > 200000 | 750 | > 267 | 470 | > 426 |
| CO[C@H]1[C@@H](O)[C@@H](C)O[C@@H](O[C@H]2[C@@H](OC)C[C@H](O[C@H]3[C@H](O)C[C@H](O[C@H]4[C@@H](OC)C[C@H](O[C@@H]5[C@@H](C)O[C@@]6(C[C@H]5OC)OCO[C@@H]5C[C@H](O[C@@H](C)[C@@]7(O)CC[C@H]8[C@@H]9CC=C%10C[C@@H](O)CC[C@]%10(C)[C@H]9CC[C@@]87C)O[C@H](C)[C@H]5O6)O[C@@H]4C)O[C@@H]3C)O[C@@H]2C)[C@@H]1OC(C)=O | 124000 | 1130 | 110 | 180 | 706 |
| CO[C@H]1C[C@H](O[C@H]2[C@@H](OC)C[C@H](O[C@H]3[C@H](O)C[C@H](O[C@H]4[C@@H](O)C[C@H](O[C@@H]5[C@@H](C)O[C@@]6(C[C@H]5OC)OCO[C@@H]5C[C@H](O[C@@H](C)[C@@]7(O)CC[C@H]8[C@@H]9CC=C%10C[C@@H](O)CC[C@]%10(C)[C@H]9CC[C@@]87C)O[C@H](C)[C@H]5O6)O[C@@H]4C)O[C@@H]3C)O[C@@H]2C)O[C@H](C)[C@H]1OC(C)=O | > 200000 | 1740 | > 145 | 1470 | > 136 |
| CO[C@H]1[C@@H](O)[C@@H](C)O[C@@H](O[C@H]2[C@@H](OC)C[C@H](O[C@H]3[C@@H](OC)C[C@H](O[C@H]4[C@@H](OC)C[C@H](O[C@@H]5[C@@H](C)O[C@@]6(C[C@H]5OC)OCO[C@@H]5C[C@H](O[C@@H](C)[C@@]7(O)CC[C@H]8[C@@H]9CC=C%10C[C@@H](OC=O)CC[C@]%10(C)[C@H]9CC[C@@]87C)O[C@H](C)[C@H]5O6)O[C@@H]4C)O[C@@H]3C)O[C@@H]2C)[C@@H]1O | 146000 | 860 | 170 | 420 | 347 |
